Experimental data published in patent US20240156852A1, “CARBON NANOPARTICLE COMPOSITIONS AND METHODS FOR DELIVERING THERAPEUTICS TO SPECIFIC TARGET SITES” (SINON NANO SCIENCES INC., priority 2021, published 2024).

Settings: male, Wistar, rat, in vivo, po
Experimental: Wistar rats (male, 200-220 g) were obtained from the CPCSEA registered animal vendor. Animals were maintained at temperature of 23±2° C., relative humidity of 30% to 70%, and a 12 h dark-light cycle. All of the animals had free access to water and rodent chow at all times, and all of the experimental animals were fed under the above conditions throughout the acclimatization period. Wistar rats (n=1, Male) were randomly taken for each of the two groups. […] All the rats were fasted for 12 hr before administration. The blood collection was done from retro-orbital plexus using an anticoagulant-coated capillary tube at 0 (pre-dose), 0.25, 0.5, 1, 2, 4, 6, 8, and 24 hr respectively following oral administration from both the rats (Group 1 and 2). At each time point, blood sample (125 μL) was collected in EDTA tubes and tubes were immediately centrifuged at 3000 rpm for 10 min to obtain the plasma. The separated plasma was frozen at −20° C. before analysis.
The biological samples were thawed at room temperature. After vortexing for 30 seconds, 100 μL of sample was taken into 1.5 mL eppendorf tubes, 600 μL of ice-cold acetonitrile was added to denature the proteins. The tubes were vortexed for 2 minutes followed by centrifugation at 5000 rpm for 10 minutes. […]

With CC(=O)O[C@H]1C(=O)[C@@]2(C)[C@H]([C@H](OC(=O)c3ccccc3)[C@]3(O)C[C@H](OC(=O)[C@H](O)[C@@H](NC(=O)c4ccccc4)c4ccccc4)C(C)=C1C3(C)C)[C@]1(OC(C)=O)CO[C@@H]1C[C@@H]2O [Paclitaxel] the “plasma concentrations (below quantitation limits)” value was < 31.2 ng/mL.
